Laboratory results as given in paper PMC5379148, “A phase I study of intravenous and oral rucaparib in combination with chemotherapy in patients with advanced solid tumours” (British Journal of Cancer, 2017).
Like-named read-outs stand apart in the source and are kept apart here.

Legend:
[1] = test system: patients with advanced solid tumours
From the text: This study was an open-label, multicentre, dose-escalating phase I study of rucaparib administered in combination with one of four different standard chemotherapeutic regimens (NCT01009190). […] The primary objective was to assess safety and tolerability and estimate the maximum tolerated dose (MTD) and/or select the recommended phase II dose of rucaparib in combination with chemotherapy. Secondary objectives were to characterise the pharmacokinetics (PK) and assess the antitumour activity of rucaparib when combined with chemotherapy.
Safety assessments included collection of adverse events (AEs) and serious AEs (defined by National Cancer Institute Common Terminology Criteria for Adverse Events version 3.0; [Pedersen et al, 2013]), as well as vital signs, physical examination, 12-lead electrocardiogram, laboratory assessments, and verification of concurrent medications. Safety variables and demographic data were presented descriptively. The safety analysis set included all enrolled patients who started treatment.

[2] = in vivo
Method: (§1) On cycle 1 days −10, −5, 1, and 14, plasma samples were obtained from all patients before rucaparib dosing and at 15 and 30 min, and at 1, 1.5, 2.5, 4, 6, 10, and 24 h after the start of the rucaparib administration (i.v. infusion (day −10) or oral (days −5, 1, and 14)). On cycle 1 days −10 and −5, samples were also obtained 48 h after the start of rucaparib administration. Rucaparib concentration was determined using liquid chromatography with tandem mass spectrometry.
(§2) Plasma clearance or apparent plasma clearance and steady-state volume of distribution were calculated for rucaparib. The oral bioavailability of rucaparib was calculated as the ratio of dose-normalised AUC0–t or AUCinf (data permitting) determined using oral rucaparib PK data collected on cycle 1 day −5 to that determined using the i.v. PK data collected on cycle 1 day −10. Pharmacokinetic parameters were summarised with the geometric mean and the coefficient of variation (CV). The ratio of Cmax and AUC0–24 of rucaparib administered in combination with chemotherapies to those of rucaparib alone was calculated and summarised, with mean and CV% to evaluate the effect of chemotherapies on the PK of rucaparib for both the i.v. dose (day −10) and oral dose (day −5).
(§3) The oral bioavailability of rucaparib was calculated as the ratio of dose-normalised AUC0-t or AUCinf (data permitting) determined using oral rucaparib PK data collected on cycle 1 day –5 to that determined using the intravenous PK data collected on cycle 1 day –10. The tmax was summarised with medians and ranges. The accumulation ratio after multiple oral rucaparib dosing (once daily) was assessed as the ratio of the AUC0-24 determined using PK collected on cycle 1 day 14 to the AUC0-24 after the cycle 1 day –5 lead-in dose. The ratio of the Cmax on day 14 to the Cmax on day –5 was also calculated. Additionally, the ratio of the AUC0-24 on cycle 1 day 14 to the AUCinf after the cycle 1 day –5 lead-in dose was calculated as an indication for any time-dependent change in rucaparib PK.

clinical = conditions: human, in vivo; for half-life: t1/2
Method: as §1, §2, §3

In the case of `CNCc1ccc(-c2[nH]c3cc(F)cc4c3c2CCNC4=O)cc1` [rucaparib], the “Patients who died of disease progression while on study” value ([1]; across treatment arms, assessed as unrelated to study drug) is reported as 7.1%, the Anaemia ([1]; human, in vivo) is reported as 31 (36.5) n (%) and the Asthenia ([1]; human, in vivo) is reported as 3 (3.5) n (%). The Constipation ([1]; human, in vivo) was 22 (25.9) n (%), the Decreased appetite ([1]; human, in vivo) was 17 (20.0) n (%) and the Diarrhoea ([1]; human, in vivo) was 17 (20.0) n (%). For the same compound, the “Discontinued treatment with AE as the primary reason” value ([1]; human, in vivo) was 18.4%, the Fatigue ([1]; human, in vivo) was 45 (52.9) n (%) and the “Grade ⩾3 AEs, patients” value ([1]; human, in vivo) was 75.3%. The “Grade ⩾3 anaemia, patients” value ([1]; human, in vivo) was 11.8%, the “Grade ⩾3 dyspnoea, patients” value ([1]; human, in vivo) was 5.9% and the “Grade ⩾3 fatigue, patients” value ([1]; human, in vivo) was 12.9%. For the same compound, the “Grade ⩾3 nausea, patients” value ([1]; human, in vivo) was 7.1%, the “Grade ⩾3 neutropenia, patients” value ([1]; human, in vivo) was 27.1% and the “Grade ⩾3 thrombocytopenia, patients” value ([1]; human, in vivo) was 18.8%. For the same compound, the “Grade ⩾3 vomiting, patients” value ([1]; human, in vivo) was 5.9%, the “Grade ⩾3 γ-glutamyltransferase increased, patients” value ([1]; human, in vivo) was 5.9% and the Lethargy ([1]; human, in vivo) was 15 (17.6) n (%). For the same compound, the Leukopenia ([1]; human, in vivo) was 7 (8.2) n (%), the Lymphopenia ([1]; human, in vivo) was 6 (7.1) n (%) and the Myalgia ([1]; human, in vivo) was 7 (8.2) n (%). For the same compound, the Nausea ([1]; human, in vivo) was 48 (56.5) n (%), the Neuropathy peripheral ([1]; human, in vivo) was 10 (11.8) n (%) and the Neutropenia ([1]; human, in vivo) was 32 (37.6) n (%). The “Patients who discontinued treatment because of AEs” value ([1]; human, in vivo) was 25.9%, the “Patients who discontinued treatment because of neutropenia” value ([1]; human, in vivo) was 3.5% and the “Patients who discontinued treatment because of platinum hypersensitivity” value ([1]; human, in vivo) was 2.4%. For the same compound, the “Patients who discontinued treatment because of thrombocytopenia” value ([1]; human, in vivo) was 2.4%, the Stomatitis ([1]; human, in vivo) was 14 (16.5) n (%) and the Thrombocytopenia ([1]; human, in vivo) was 27 (31.8) n (%). For the same compound, the Vomiting ([1]; human, in vivo) was 28 (32.9) n (%), the “≥1 treatment-related adverse event” value ([1]; human, in vivo) was 80 (94.1) n (%) and the Alopecia ([1]; treatment-related, any grade, All patients (N = 85), all arms) was 15 (17.6) n (%). The “change in t1/2 at steady state compared with a single dose” value ([2]; human) was “no change”, the “Ratio of rucaparib AUC0–24, day 1/day −10” value ([2]; human, iv, 24 mg) was 1.02 (15) and the “Ratio of rucaparib Cmax, day 1/day −10” value ([2]; human, iv, 24 mg) was 1.03 (16). For the same compound, the “average increase of steady-state AUC0–24 compared with a single dose” value ([2]; human, po) was 61%, the CL/F ([2]; human, po, 12 mg) was 53.4 (39.7) L h^–1 and the CL/F ([2]; human, po, 36 mg) was 32.7 (41.9) L h^–1. The CL/F ([2]; human, po, 48 mg) was 52.1 (150) L h^–1, the CL/F ([2]; human, po, 72 mg) was 65.9 (49.4) L h^–1 and the “AR, accumulation ratio [AUC0-24, Day 14/AUC0-24, Day -5]” value (from here on “AR, accumulation ratio”) ([2]; human, po, 80 mg) was 1.19 (-). For the same compound, the “ARcm, accumulation ratio of Cmax on day 14 to Cmax on day –5” value (“ARcm, accumulation ratio of Cmax” for short) ([2]; human, po, 80 mg) was 1.50 (-), the “AUC ratio [time-dependent linearity]” value ([2]; human, po, 80 mg) was 0.655 (-) and the “AR, accumulation ratio” value ([2]; human, po, 120 mg) was 1.49 (104). The “ARcm, accumulation ratio of Cmax” value ([2]; human, po, 120 mg) was 1.41 (99.8), the “AUC ratio [time-dependent linearity]” value ([2]; human, po, 120 mg) was 1.14 (101) and the “AR, accumulation ratio” value ([2]; human, po, 180 mg) was 1.36 (8.48). The “ARcm, accumulation ratio of Cmax” value ([2]; human, po, 180 mg) was 1.11 (31.1), the “AUC ratio [time-dependent linearity]” value ([2]; human, po, 180 mg) was 0.785 (13.3) and the CL/F ([2]; human, po, 180 mg) was 21.4 (68.6) L h^–1. For the same compound, the “AR, accumulation ratio” value ([2]; human, po, 240 mg) was 1.64 (28.2), the “ARcm, accumulation ratio of Cmax” value ([2]; human, po, 240 mg) was 1.30 (29.7) and the “AUC ratio [time-dependent linearity]” value ([2]; human, po, 240 mg) was 1.01 (31.6). The “AR, accumulation ratio” value ([2]; human, po, 360 mg) was 1.7 (46.3), the “ARcm, accumulation ratio of Cmax” value ([2]; human, po, 360 mg) was 1.29 (46.1) and the “AUC ratio [time-dependent linearity]” value ([2]; human, po, 360 mg) was 1.06 (53.1). For the same compound, the “dose dependence of exposure” value [2] was “increased approximately dose proportionally”, the “effect of carboplatin coadministration on rucaparib oral PK” value ([2]; po) was “not affected” and the clearance (clinical; iv, 12 mg) was 270 mL/min. It also gave a half-life (clinical; iv, 12 mg) of 18.7 h, a clearance (clinical; iv, 18 mg) of 307 mL/min and a half-life (clinical; iv, 18 mg) of 16.4 h. The clearance (clinical; iv, 24 mg) was 233 mL/min, the half-life (clinical; iv, 24 mg) was 20.7 h and the clearance (clinical; iv, 27 mg) was 237 mL/min. It also gave a half-life (clinical; iv, 27 mg) of 16.8 h, a clearance (clinical; iv, 40 mg) of 232 mL/min and a half-life (clinical; iv, 40 mg) of 11.9 h. The half-life (clinical; po, 12 mg) was 18.6 h, the half-life (clinical; po, 36 mg) was 18 h and the half-life (clinical; po, 48 mg) was 20.3 h. It also gave a half-life (clinical; po, 72 mg) of 25.1 h, a half-life (clinical; po, 80 mg) of 20.1 h and a half-life (clinical; po, 120 mg) of 13.3 h. For the same compound, the half-life (clinical; po, 180 mg) was 19.2 h, the half-life (clinical; po, 240 mg) was 17.7 h and the half-life (clinical; po, 360 mg) was 18.2 h. The half-life (clinical) was roughly 17 h.
